Results as given in ChEMBL document CHEMBL1201862, “PubChem BioAssay data set” (2004).
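Step 1: Grow cells in 96-well plates. Step 2: Expose to compound for 48 hours at 5 concentrations. Step 3: Interpolate endpoints linearly; if unreached, use highest concentration. GI50 is the concentration that inhibits growth by half.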 Activity calls are given as the source filed them. Rule as the data show it: active = GI50 up to about 1.1 µM and inactive = higher.

What was measured:
Experiment in all cases: NCI tumour cell line growth inhibition, 48 h
RXF 393 = tested on: RXF 393
K562 = tested on: K562
OVCAR-5 = tested on: OVCAR-5
Malme-3M = tested on: Malme-3M
SF-268 = tested on: SF-268
NCI-H522 = tested on: NCI-H522
HCC 2998 = tested on: HCC 2998
HCT-15 = tested on: HCT-15
PC-3 = tested on: PC-3
OVCAR-3 = tested on: OVCAR-3
CCRF-CEM = tested on: CCRF-CEM
A498 = tested on: A498
NCI/ADR-RES = tested on: NCI/ADR-RES
SF-295 = tested on: SF-295
Hs-578T = tested on: Hs-578T
786-0 = tested on: 786-0
CAKI-1 = tested on: CAKI-1
HCT-116 = tested on: HCT-116
IGROV-1 = tested on: IGROV-1
UO-31 = tested on: UO-31
M14 = tested on: M14
HL-60 = tested on: HL-60
MDA-MB-435 = tested on: MDA-MB-435
MCF7 = tested on: MCF7
SK-OV-3 = tested on: SK-OV-3
NCI-H226 = tested on: NCI-H226
COLO 205 = tested on: COLO 205
HT-29 = tested on: HT-29
DU-145 = tested on: DU-145
OVCAR-8 = tested on: OVCAR-8
HOP-62 = tested on: HOP-62
SK-MEL-5 = tested on: SK-MEL-5
EKVX = tested on: EKVX
UACC-257 = tested on: UACC-257
SR = tested on: SR
SNB-75 = tested on: SNB-75
NCI-H23 = tested on: NCI-H23
MOLT-4 = tested on: MOLT-4
SK-MEL-2 = tested on: SK-MEL-2
MDA-N = tested on: MDA-N
RPMI-8226 = tested on: RPMI-8226
SK-MEL-28 = tested on: SK-MEL-28
T47D = tested on: T47D
SF-539 = tested on: SF-539
BT-549 = tested on: BT-549
UACC-62 = tested on: UACC-62
LOX IMVI = tested on: LOX IMVI
SW-620 = tested on: SW-620
ACHN = tested on: ACHN
NCI-H460 = tested on: NCI-H460
HOP-92 = tested on: HOP-92
SN12C = tested on: SN12C
OVCAR-4 = tested on: OVCAR-4
KM12 = tested on: KM12
U-251 = tested on: U-251
A549 = tested on: A549
MDA-MB-231 = tested on: MDA-MB-231
SNB-19 = tested on: SNB-19

Structure (SMILES): Clc1ccc(-c2nnc(-c3c(Cl)c(Cl)c(Cl)c(Cl)c3-c3nc4ccccc4[nH]3)o2)cc1
- GI50 (RXF 393): 40.7 µM (inactive)
- GI50 (K562): 34.3 µM (inactive)
- GI50 (OVCAR-5): > 100 µM (inactive)
- GI50 (Malme-3M): > 100 µM (inactive)
- GI50 (SF-268): > 100 µM (inactive)
- GI50 (NCI-H522): 47.9 µM (inactive)
- GI50 (HCC 2998): 59 µM (inactive)
- GI50 (HCT-15): 55.3 µM
- GI50 (PC-3): 97.5 µM (inactive)
- GI50 (OVCAR-3): 61.7 µM (inactive)
- GI50 (CCRF-CEM): 59.4 µM (inactive)
- GI50 (A498): 82.8 µM (inactive)
- GI50 (NCI/ADR-RES): 47.4 µM (inactive)
- GI50 (SF-295): 48.5 µM (inactive)
- GI50 (Hs-578T): > 100 µM (inactive)
- GI50 (786-0): 50.4 µM (inactive)
- GI50 (CAKI-1): 56.1 µM (inactive)
- GI50 (HCT-116): 31.6 µM (inactive)
- GI50 (IGROV-1): 30.2 µM (inactive)
- GI50 (UO-31): 42.7 µM (inactive)
- GI50 (M14): 69.8 µM (inactive)
- GI50 (HL-60): > 100 µM (inactive)
- GI50 (MDA-MB-435): > 100 µM (inactive)
- GI50 (MCF7): 35.1 µM (inactive)
- GI50 (SK-OV-3): > 100 µM (inactive)
- GI50 (NCI-H226): 54.5 µM (inactive)
- GI50 (COLO 205): 52.2 µM (inactive)
- GI50 (HT-29): 98.9 µM (inactive)
- GI50 (DU-145): 78.2 µM (inactive)
- GI50 (OVCAR-8): 48.2 µM (inactive)
- GI50 (HOP-62): > 100 µM (inactive)
- GI50 (SK-MEL-5): 40.4 µM (inactive)
- GI50 (EKVX): 54.3 µM (inactive)
- GI50 (UACC-257): > 100 µM (inactive)
- GI50 (SR): 34.3 µM (inactive)
- GI50 (SNB-75): 68.7 µM (inactive)
- GI50 (NCI-H23): 45 µM (inactive)
- GI50 (MOLT-4): 27.2 µM (inactive)
- GI50 (SK-MEL-2): > 100 µM (inactive)
- GI50 (MDA-N): 53.5 µM (inactive)
- GI50 (RPMI-8226): 31.8 µM (inactive)
- GI50 (SK-MEL-28): > 100 µM (inactive)
- GI50 (T47D): 21 µM (inactive)
- GI50 (SF-539): > 100 µM (inactive)
- GI50 (BT-549): 70.1 µM (inactive)
- GI50 (UACC-62): 63.4 µM (inactive)
- GI50 (LOX IMVI): 71.9 µM (inactive)
- GI50 (SW-620): > 100 µM (inactive)
- GI50 (ACHN): 97.3 µM (inactive)
- GI50 (NCI-H460): 44 µM (inactive)
- GI50 (HOP-92): 31.7 µM (inactive)
- GI50 (SN12C): 46.8 µM (inactive)
- GI50 (OVCAR-4): 84.9 µM (inactive)
- GI50 (KM12): 97.5 µM (inactive)

Structure (SMILES): COc1ccc(C2SC(=N)Nc3c2c(C)nn3C(=O)c2ccccc2O)cc1 (stereo not drawn)
- GI50 (RXF 393): 0.532 µM (active)
- GI50 (K562): 0.45 µM (active)
- GI50 (OVCAR-5): 8.09 µM (inactive)
- GI50 (Malme-3M): 0.659 µM (active)
- GI50 (SF-268): 0.885 µM (active)
- GI50 (NCI-H522): 3.85 µM (inactive)
- GI50 (HCC 2998): > 10 µM (inactive)
- GI50 (U-251): 0.9 µM (active)
- GI50 (HCT-15): 4.58 µM
- GI50 (PC-3): 3.81 µM (inactive)
- GI50 (OVCAR-3): 1.96 µM (inactive)
- GI50 (A549): 0.412 µM (active)
- GI50 (CCRF-CEM): 2.04 µM (inactive)
- GI50 (NCI/ADR-RES): 2.12 µM (inactive)
- GI50 (SF-295): 3.98 µM (inactive)
- GI50 (Hs-578T): 0.49 µM (active)
- GI50 (786-0): 1.31 µM (inactive)
- GI50 (CAKI-1): 0.667 µM (active)
- GI50 (HCT-116): 0.655 µM (active)
- GI50 (MDA-MB-231): 0.986 µM (active)
- GI50 (IGROV-1): 0.497 µM (active)
- GI50 (M14): 1.67 µM (inactive)
- GI50 (HL-60): 2.58 µM (inactive)
- GI50 (MDA-MB-435): 0.455 µM (active)
- GI50 (MCF7): 1.61 µM (inactive)
- GI50 (SK-OV-3): 5.32 µM (inactive)
- GI50 (NCI-H226): 0.904 µM (active)
- GI50 (COLO 205): 8.87 µM (inactive)
- GI50 (HT-29): 5.11 µM (inactive)
- GI50 (OVCAR-8): 0.998 µM (active)
- GI50 (HOP-62): 2.77 µM (inactive)
- GI50 (SK-MEL-5): 2.59 µM (inactive)
- GI50 (EKVX): 7.38 µM (inactive)
- GI50 (UACC-257): 2.81 µM (inactive)
- GI50 (SNB-75): 0.308 µM (active)
- GI50 (NCI-H23): 0.933 µM (active)
- GI50 (MOLT-4): 1.81 µM (inactive)
- GI50 (SK-MEL-2): 2.57 µM (inactive)
- GI50 (MDA-N): 0.843 µM (active)
- GI50 (RPMI-8226): 1.56 µM (inactive)
- GI50 (SK-MEL-28): > 10 µM (inactive)
- GI50 (T47D): 8.99 µM (inactive)
- GI50 (SF-539): 0.27 µM (active)
- GI50 (BT-549): 1.16 µM (inactive)
- GI50 (UACC-62): 0.583 µM (active)
- GI50 (LOX IMVI): 3.6 µM (inactive)
- GI50 (SW-620): 5.47 µM (inactive)
- GI50 (SNB-19): > 10 µM (inactive)
- GI50 (ACHN): 0.374 µM (active)
- GI50 (NCI-H460): 3.72 µM (inactive)
- GI50 (HOP-92): > 10 µM (inactive)
- GI50 (SN12C): 2.44 µM (inactive)
- GI50 (OVCAR-4): 1.9 µM (inactive)
- GI50 (KM12): 2.89 µM (inactive)
